Two compounds from patent publication US5962409A, “Somatostatin-analogous cyclic peptides with inhibitory activity on growth hormone” (priority 1995, dated 1999) can be followed below.

For test [1], the system named is 70 kDa complex (1 or 4 sub-type somatostatin receptors), GH 3 rat cell line. As to the kind of experiment: Displacement of radioiodinated 11-Tyr somatostatin-14 from somatostatin receptors, 70 kDa complex (gel electrophoresis/autoradiography). The note with it: 10^-6 M; auto-radiographies in electrophoresis. In kind it is binding. Here is the method:
(§1) The study of the binding of the peptides on somatostatin receptors has been carried out according to the displacement method which consists in replacing from the receptors the radioligand (11-Tyr radioiodinated somatostatin 14-) before electrophoretic analysis on a denaturant polyacrylaminde gel (Prevost et al. European J. Cancer, 11, 1589-1592,1993).
(§2) The biological activity was tested on rat and human cell lines, namely a GH 3 rat cell line established starting from a pituitary tumor with two 70 and 57 kDa receptors; MCF7 human cell line established starting from a pleural effusion of a breast carcinoma with two main 57 and 42 kDa receptors and human cell line established starting from a small cell carcinoma of the lung with a 57 kDa receptor.
(§3) The tested peptides were suspended in 0.1% acetic acid at the final concentration of 10 mM and stored at 4° C.
(§4) Tests were carried out at a 10^-6 M concentration.

For test [2], the system named is 57 kDa complex (somatostatin receptor sub-type 2). The test is described as follows: Displacement of radioiodinated 11-Tyr somatostatin-14 from somatostatin receptors, 57 kDa complex (gel electrophoresis/autoradiography). Particulars: 10^-6 M; auto-radiographies in electrophoresis. In kind it is binding, rat and human. Here is the method: as §1, §2, §3, §4

For `C[C@H](N)C(=O)NCC(=O)N[C@H]1CSSC[C@@H](C(=O)O)NC(=O)[C@H](CO)NC(=O)[C@H]([C@@H](C)O)NC(=O)[C@H](Cc2ccccc2)NC(=O)[C@H]([C@@H](C)O)NC(=O)[C@H](CCCCN)NC(=O)[C@H](Cc2c[nH]c3ccccc23)NC(=O)[C@H](Cc2ccccc2)NC(=O)[C@H](Cc2ccccc2)NC(=O)[C@H](CC(N)=O)NC(=O)[C@H](CCCCN)NC1=O` [somatostatin-14], the “suppression of the 70 kDa radioligand-receptor complex” value in test [1] is recorded as “suppressed”.

Antarelix: the “displacement of the 57 kDa radioligand-receptor complex” value in test [2] is recorded as “not”.
